From BindingDB's records for doi:10.1016/S0960-894X(97)10006-3 (1997)

assay: Binding affinity for DHP (Dihydropyridine) site of L-type calcium channel of calf heart in the resting state

Row | IC50 | SMILES
1 | 270 nM | CCOC(=O)C1=C(C)NC(C)=C(C#N)[C@@H]1c1cnccc1-c1cccc2ccccc12
2 | 100 nM | CCOC(=O)C1=C(C)NC(C)=C(C#N)[C@@H]1c1cnccc1-c1ccc2ccccc2c1
3 | 250 nM | CCOC(=O)C1=C(C)NC(C)=C(C#N)[C@@H]1c1cnccc1-c1ccccc1
